Experimental data: patent US20220238900A1, “All Natural Redox Flow Battery Utilizing Indigo Carmine And Derivatives Thereof” (Northeastern University, priority 2019, published 2022)
≈ marks a conversion by molar mass, not a printed value. Where “and” joins values, the source holds several entries; their conditions need not be identical. Equal entries are not always repeated.

Legend:
physchem = test: physchem
Text: FIG. 1A illustrates the natural source of the indigo dye. The most natural product from which indigo is obtained includes indican (genus indigofera plants) and isatan (woad plants or isatis tinctoria) in tropical and moderate climate zones, respectively.^[19] Irrespective of their source, the chemistry of the dye extraction involves soaking the leaves of the plants in water to facilitate the fermentation process, during which the indican readily undergoes enzymatic hydrolysis and releases indoxyl that converts to indigo by oxidation upon exposure to air. […] On the contrary, a high concentration of reactants in solution is the key to minimize the storage tank size while obtaining high specific volumetric energy density. Therefore, the design of an appropriate electrolyte for AORFB starts from identifying redox-active materials followed by optimization of the structure to achieve the maximum solubility to maximize the energy density. […] In IC-H, the substituted protons are attached to the strongly electronegative oxygen atoms and capable of forming strong hydrogen bondings. Hydrogen bondings are usually stronger than the Van Der Wall forces and dipole interactions.

[1] = Three-electrode half-cell cyclic voltammetry
[2] = Rotating disk electrode linear sweep voltammetry (Levich and Tafel analysis); assay type: physicochemical
Text: Further, the log (i0) can also be represented as FACOk0, where k0 is the electron transfer rate constant.

| aqueous solubility (physchem) | improvement in solubility (physchem) | chemical stability on CV cycling ([1]; 10,000 cycles at 40 mV s^−1) | redox peak separation ([1]; scan rates 5 mV s^−1 to 200 mV s^−1) | electron transfer (reaction) rate constant ([2]; 1 mM in 0.1 M HClO4, fitted Tafel plot) | electron transfer rate constant k0 ([2]; LSV data at 2700 rpm, Tafel plot) | SMILES | diffusion coefficient ([2]; 1 mM in 0.1 M HClO4, slope of Levich plot) | redox potential (redox peaks) ([1]; acidic medium (0.1 M HClO4 where stated)) |
| --- | --- | --- | --- | --- | --- | --- | --- | --- |
| 760 mM (≈ 321 mg/mL) | 22 folds | negligible decay | 40 mV | 0.000282 cm/s | 0.000282 cm/s | O=C1/C(=C2\Nc3ccc(S(=O)(=O)O)cc3C2=O)Nc2ccc(S(=O)(=O)O)cc21 [IC-H, 5,5′-indigodisulfonic acid] | 2.232×10^−5 cm^2 s^−1 and 2.23×10^−5 cm^2 s^−1 |  |
|  |  |  |  |  |  | CC1(C)CCCC(C)(C)N1[O] [TEMPO, 2,2,6,6-tetramethylpiperidine-1-oxyl, reference compound] |  | around 0.75 V vs. Ag/AgCl |
